# The supplement of paper PMC10307832
# Legend:
# [1] = compound: CC(C)(C)c1nc(-c2cccc(NS(=O)(=O)c3c(F)cccc3F)c2F)c(-c2ccnc(N)n2)s1 [Dabrafenib] + CC(=O)Nc1cccc(-n2c(=O)n(C3CC3)c(=O)c3c(Nc4ccc(I)cc4F)n(C)c(=O)c(C)c32)c1 [Trametinib] (partner 0.02 µM); assay: relative viability (nuclei count vs DMSO), 5 days (fraction); higher = more cells survive
# Procedure, shortened: (§1)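 One day after seeding in 1536-well plates, lung cancer cell lines were dosed by pin tool. Dosing was either single-drug or a fixed anchor-drug dose plus five library-drug doses (not always all listed) in √10 steps. After 5 days, nuclei were stained in one fix-and-stain step and counted on 4× images, and relative viability is the nuclei count of treated wells over that of vehicle wells, given as the median of duplicate plates.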
# [2] = compound: CC(C)(C)c1nc(-c2cccc(NS(=O)(=O)c3c(F)cccc3F)c2F)c(-c2ccnc(N)n2)s1 [Dabrafenib] + NC(=O)Nc1cc(-c2cccc(F)c2)sc1C(=O)N[C@H]1CCCNC1 [AZD7762] (partner 0.2 µM); assay: as above
# Procedure, shortened: as §1
Cell Line,relative viability ([1]; first compound 0.003 µM),relative viability ([1]; first compound 0.009487 µM),relative viability ([1]; first compound 0.03 µM),relative viability ([1]; first compound 0.09487 µM),relative viability ([1]; first compound 0.3 µM),relative viability ([2]; first compound 0.003 µM),relative viability ([2]; first compound 0.009487 µM),relative viability ([2]; first compound 0.03 µM),relative viability ([2]; first compound 0.09487 µM),relative viability ([2]; first compound 0.3 µM)
RERF-LC-KJ,0.811,0.939,0.961,0.944,1.05,0.871,1.01,0.907,0.916,1.35
ChaGo-K-1,0.884,0.929,0.933,0.875,0.905,0.303,0.839,0.855,0.698,0.879
NCI-H1395,,1.18,0.988,0.889,0.984,,0.385,0.402,0.424,0.412
LU99A,0.453,0.384,0.508,0.529,0.574,0.55,0.401,0.368,0.352,0.261
NCI-H522,,0.829,0.753,0.682,0.792,,0.936,0.717,0.88,0.841
SK-MES-1,,0.653,0.747,0.712,0.827,,,,,
NCI-H322M,,0.492,,0.53,0.532,,0.613,,0.619,0.612
NCI-H358,0.109,0.116,0.159,0.162,0.178,,0.866,0.6,0.637,0.775
EMC-BAC-2,,0.827,1,1.03,1.2,,1.13,0.967,0.728,0.782
HCC-78,,0.688,0.668,0.761,0.89,,0.683,0.466,0.563,0.872
NCI-H2085,0.523,0.583,0.46,0.589,0.633,0.724,1.11,1.01,0.874,1.01
NCI-H441,,0.53,0.54,0.681,0.829,,1.22,1.02,1.03,1.34
NCI-H1975,0.214,0.316,0.317,0.321,0.367,0.481,0.788,0.734,0.505,0.78
COR-L23,0.528,0.432,0.626,0.512,0.656,,,,,
NCI-H460,0.144,0.171,0.115,0.317,0.341,0.282,0.616,0.546,0.556,0.493
NCI-H838,0.51,0.614,0.428,0.429,0.506,0.993,0.885,0.91,0.889,0.89
NCI-H2087,,0.18,0.234,0.209,0.181,,1.24,1.11,0.928,1
NCI-H596,,0.84,0.707,0.747,0.704,,1.2,0.958,1.14,1.16

Cell Line,relative viability ([1]; first compound 0.003 µM),relative viability ([1]; first compound 0.009487 µM),relative viability ([1]; first compound 0.03 µM),relative viability ([1]; first compound 0.09487 µM),relative viability ([1]; first compound 0.3 µM),relative viability ([2]; first compound 0.003 µM),relative viability ([2]; first compound 0.009487 µM),relative viability ([2]; first compound 0.03 µM),relative viability ([2]; first compound 0.09487 µM),relative viability ([2]; first compound 0.3 µM)
HCC-827,0.511,0.53,0.522,,0.616,0.129,0.234,0.216,,0.276
NCI-H1755,0.779,0.733,0.758,0.75,0.749,0.331,0.446,0.353,0.435,0.471
SK-LU-1,,0.437,0.329,0.488,0.456,,,,,
NCI-H2347,,0.304,0.247,0.265,0.313,,0.63,0.562,0.605,0.598
NCI-H2023,0.533,0.547,0.55,0.581,0.663,,,,,
NCI-H1944,0.409,0.426,0.403,0.401,0.404,0.219,0.537,0.397,0.457,0.555
NCI-H2126,0.468,0.532,0.475,0.6,0.619,0.872,1.11,1.02,0.94,1.01
NCI-H2170,0.908,0.982,0.842,0.839,0.919,0.282,0.841,0.616,0.64,0.745
SW 1573,0.608,0.547,0.669,0.648,0.705,,,,,
EPLC-272H,,0.262,0.312,0.349,0.329,,0.283,0.174,0.207,0.155
NCI-H2342,0.808,0.79,0.76,0.866,0.927,0.364,0.486,0.417,0.481,0.55
NCI-H1651,0.85,0.843,0.823,0.861,0.814,0.25,0.466,0.461,0.43,0.451
NCI-H23,,0.425,0.364,0.34,0.508,,0.207,0.205,0.254,0.217
NCI-H727,0.355,0.353,,0.417,0.354,0.472,0.459,,0.492,0.669
NCI-H1993,0.53,0.474,0.508,0.687,0.621,0.555,0.968,0.792,0.716,0.826
NCI-H2405,,0.46,0.409,0.475,0.523,,0.805,0.592,0.597,0.598
NCI-H661,0.562,0.527,0.59,0.556,0.568,,,,,
HCC-366,0.324,0.348,0.225,0.374,0.396,0.0302,0.288,0.29,0.309,0.16
